What was measured:
Plasmodium falciparum [1] = test: ST_JUDE: Plasmodium falciparum K1 EC50 (uM) as measured by SYBR green dye; type: functional, organism-based
Plasmodium falciparum [2] = test: ST_JUDE: Plasmodium falciparum 3D7 EC50 (uM) as measured by SYBR green dye; type: functional, organism-based

SMILES	EC50 (Plasmodium falciparum [1]) [µM]	EC50 (Plasmodium falciparum [2]) [µM]
O=C(COc1ccccc1)NC(c1ccc(Cl)cc1)c1cc(Cl)c2cccnc2c1O (centres undefined)	1.68	1.83
CCCOc1ccc(-c2nonc2NC(=O)c2cccc(OC)c2)cc1OCCC	1.21	1.16
CN(C)CCn1c(=N)n(CC(O)c2ccc(Cl)c(Cl)c2)c2ccccc21 (centres undefined)	3.01	0.638
CCOc1ccc(Nc2cc(C)nc3c(C)cc(C)cc23)cc1	6.67	3.73
CSc1nc(SC)c2c3c(sc2n1)CN(C)CC3	4.75	4.16
O=C1CC(c2ccc(O)cc2)C2=C(CC(c3ccccc3Cl)CC2=O)N1 (centres undefined)	1.41	2.43
Cc1ccnc(NC(c2ccc(Cl)cc2Cl)c2ccc3cccnc3c2O)c1 (centres undefined)	1.44	1.56
Oc1c(C(Nc2ccccn2)c2cccc(Oc3ccccc3)c2)ccc2cccnc12 (centres undefined)	2.76	2.92
COc1ccccc1C1CC(c2ccccc2)=NN1C(=O)c1ccco1 (centres undefined)	4.33	0.594
CN(C(=O)c1cc2c(s1)-c1ccccc1S(=O)(=O)C2)c1cccc(Cl)c1	1.05	0.711
COc1cccc(C2=C(C(C)=O)Sc3nncn3N2C(C)=O)c1	3.43	3.01
CN(C)CCNc1nc(Cc2ccccc2)nc2sc3c(c12)CCCC3	> 15	> 15
O=C(CSc1nccn1-c1ccc(F)cc1)Nc1cc(C(F)(F)F)ccc1Cl	4.11	2.96
CCOc1ccccc1CN1CCN(Cc2cc(Br)ccc2O)CC1	1.29	2.48
CN(C)CCN(C)C(=O)c1cccc(OC2CCN(Cc3ccccc3O)CC2)c1	5.14	4.8
OC(CN1CCN(Cc2ccccc2)CC1)Cn1c2ccccc2c2ccccc21 (centres undefined)	1.15	2.64
C[n+]1ccccc1/C=C1\Sc2ccccc2N1CCO	3.1	5.49
CCc1ccc(NC(=O)CN2N=NC3C(=O)N(c4ccc(Br)cc4)C(=O)C32)cc1 (centres undefined)	> 15	> 15
CCOc1cc(O)c(-c2[nH]nc(C)c2Oc2ccc(F)cc2)cc1CC	3.55	2.51
Cc1ccc(Cn2c(=N)n(CC(=O)c3ccc([N+](=O)[O-])cc3)c3ccccc32)cc1	10.4	7.64
CCCC(=O)N1CCN(c2ccc(NC(=O)c3cccc([N+](=O)[O-])c3)cc2Cl)CC1	> 15	> 15
CC[n+]1c(C=C2C=CN(C)C=C2)ccc2cc(OC)ccc21	2.05	> 15

SMILES	EC50 (Plasmodium falciparum [1]) [µM]	EC50 (Plasmodium falciparum [2]) [µM]
C=CCn1c(C)c(C=C2C(=O)NC(=S)NC2=O)c2ccccc21	1.4	1.69
COc1cccc(C(=O)NC(NC(=S)Nc2ccccc2Cl)C(Cl)(Cl)Cl)c1 (centres undefined)	5.39	2.67
CC1CC(C)CN(C(=O)c2ccc(Cl)cc2Cl)C1 (centres undefined)	> 15	1.32
COc1ccccc1CCN1C(=O)CCC1CCNCCOc1ccccc1 (centres undefined)	> 15	> 15
COCCn1/c(=N/C(=O)COc2ccccc2)sc2cc(OC)ccc21	> 15	> 15
CN(Cc1cccc(OCCNC(=O)c2ccc3c(c2)OCO3)c1)Cc1cccc2cccnc12	> 15	> 15
CCOC(=O)c1c(N)n[nH]c1O	> 15	> 15
CCN(CC)c1ccc(C(NC(=O)C(C)C)c2ccc3cccnc3c2O)cc1 (centres undefined)	5.82	4.85
COc1cccc(C(=O)Nc2ccc(-c3nnc(-c4ccco4)o3)cc2)c1	> 15	> 15
CCc1ccc(Oc2c(C(F)(F)F)oc3c(CN4CCCCC4)c(O)ccc3c2=O)cc1	0.558	1.61
Cc1ccc(NC(=O)c2csc3c2CCCCC3)c(C)c1	> 15	1.77
COc1cccc(C(=O)NC(c2ccc(C)cc2)c2cc(Cl)c3cccnc3c2O)c1 (centres undefined)	> 15	> 15
CCCN1CCC(NC(=S)Nc2ccc([N+](=O)[O-])cc2)CC1	> 15	> 15
CN(C)CCNc1c2c(nc3ccccc13)CCC2	> 15	3.96
Nc1nc(Nc2ccc(Cl)c(Cl)c2)nc2ccccc12	> 15	2.22
COc1cccc(NC(=O)Cn2c3ccccc3c(=O)c3cc(Cl)ccc32)c1	5.45	> 15
COc1cc(/C=C(\C#N)c2nc3ccccc3[nH]2)cc(Br)c1OCC#N	> 15	> 15
Cc1ccc2nc3c(cc(C(=O)NC(C)c4ccccc4)c(=N)n3CC3CCCO3)c(=O)n2c1 (centres undefined)	> 15	> 15
CCCN(CCC)CCCNC(=O)c1cc2c(-c3cccc(OC)c3)nn(C)c2s1	7.45	2.15
CCCC1=Nc2cc(C(=O)N3CCN(C(=O)OCC)CC3)ccc2Sc2ccc(C)cc21	> 15	> 15
Cc1ccc2ccc(C(Nc3ccccn3)c3cccc(Cl)c3)c(O)c2n1 (centres undefined)	3.66	4.13
CC(=O)Nc1ccc(NC(=O)CSc2nn3c(=O)c(C)nnc3s2)cc1	4.96	> 15

SMILES	EC50 (Plasmodium falciparum [1]) [µM]	EC50 (Plasmodium falciparum [2]) [µM]
Cc1ccc2nc(NNC(=O)c3ccc(S(=O)(=O)N(C)C)cc3)sc2c1	5.39	5.03
CCOC(=O)c1ccc2nc(C)c(CN3CCN(C(c4ccccc4)c4ccccc4)CC3)c(O)c2c1	> 15	> 15
CCN1CCN(CCCNC(=O)c2ccc3c(c2)sc2nc(-c4ccc(C)cc4)cn23)CC1	1.89	1.14
COc1ccccc1OCCCCN1CCCC1	> 15	> 15
CCOc1ccc(NC2=C(NCCO)C(=O)c3ccccc3C2=O)cc1	4.88	3.54
Oc1ccc(Cl)cc1CN1CCN(Cc2ccccc2)CC1	0.486	1.02
Cc1ccc(NC(=O)c2ccc(Br)o2)c(Br)c1	> 15	> 15
Cc1ccc(-c2cc(-c3cc(Cl)ccc3O)[nH]n2)cc1	2.92	5.01
Cc1c(Cl)ccc2c(C(=O)Nc3ccc(S(=O)(=O)N4CCOCC4)cc3)cc(-c3cccnc3)nc12	> 15	1.22
CCOc1ccccc1CNC(=O)C1c2ccccc2C(=O)N(CC(C)C)C1c1cccs1 (centres undefined)	1.49	1.43
CC(C)C(=O)N1CCN(c2ccc([N+](=O)[O-])c(NC3CC3)c2)CC1	6.77	4.46
CC(=O)c1ccc(NC2=C(n3nnc4ccccc43)C(=O)c3ccccc3C2=O)cc1	1.58	> 15
COc1ccc(NC(=O)COc2c(C)cc(Br)cc2C)c(OC)c1	5.44	> 15
O=C(Nc1cccc(Br)c1)c1cc2ccccc2cc1O	0.57	> 15
Oc1c(CN2CCN(c3cccc(Cl)c3)CC2)cc(Br)c2cccnc12	> 15	0.88
CCCc1cc(O)nc(Nc2ccc(Cl)c(C(F)(F)F)c2)n1	2.84	3.09
CN1CCN(c2nc(Nc3ccc(SC(F)F)cc3)c3cnn(-c4ccccc4)c3n2)CC1	3.72	1.31
COc1ccc(CCNC(=S)Nc2ccccc2C)cc1OC	3.96	3.75
O=C1c2ccccc2/C(=N/Nc2ccc([N+](=O)[O-])cc2)C1c1cc(Br)ccc1[N+](=O)[O-] (centres undefined)	3.57	6.75
CCc1cc(-c2[nH]nc(C)c2Oc2ccc(Cl)cc2)c(O)cc1OC	3.2	4.85
O=C(O)c1ccc(S(=O)(=O)NC2=C/C(=N\S(=O)(=O)c3ccccc3)C(=O)c3ccccc32)cc1	> 15	> 15
CCOC(=O)C1CCN(C(=O)CN(Cc2ccc(Cl)cc2)S(=O)(=O)c2ccc(C)cc2)CC1	2.18	> 15

SMILES	EC50 (Plasmodium falciparum [1]) [µM]	EC50 (Plasmodium falciparum [2]) [µM]
CCOC(=O)C1=C(C)N=c2s/c(=C\c3ccc(O)cc3)c(=O)n2C1c1ccc(OC)c(OC)c1 (centres undefined)	1.4	> 15
C#CC[n+]1ccn2c(C)ccc2c1C	1.69	5.58
CC(=O)C1=C(C)NC(SCC(=O)c2cccc([N+](=O)[O-])c2)=C(C#N)C1c1ccc(Cl)cc1 (centres undefined)	6.73	> 15
COc1ccc(C)c2sc(N(Cc3cccnc3)C(=O)c3ccc(C#N)cc3)nc12	> 15	> 15
Cc1cc(N2CCN(C)CC2)nc(N2CCN(C(=O)c3ccc(C(C)(C)C)cc3)CC2)n1	> 15	> 15
CCn1cc(CCCC(=O)NCc2ccc(OC)cc2)c2ccccc21	4.06	3.75
Cc1ccc(O)c(-n2cc3c(c2-c2ccc(C(C)(C)C)cc2)c(=O)n(C)c(=O)n3C)c1	2.41	3.57
Cc1nc2ccccc2c(=O)n1-c1cccc(NC(=O)c2ccc(C(F)(F)F)cc2)c1	> 15	> 15
COc1ccccc1-c1nnc(NC(=O)c2cccc(SC)c2)o1	> 15	> 15
CN(C)c1ccc(Nc2nc(-c3cccnc3)nc3ccccc23)cc1	5.08	> 15
CCc1ccccc1NC(=O)C1c2ccccc2C(=O)N(C2CCCC2)C1c1cccs1 (centres undefined)	3.38	1.73
CCCc1cc(O)nc(-n2nc(C)cc2NC(=O)c2cccc(C)c2)n1	> 15	2.22
CCOC(=O)c1cnc2ccc(OC)cc2c1NCc1ccccc1	> 15	2.77
CCOC(=O)c1cnc2c(C)c(C)ccc2c1Nc1cc([N+](=O)[O-])ccc1O	> 15	> 15
Cc1ccc(Nc2cc(C)nc(-n3cc([N+](=O)[O-])cn3)n2)cc1	> 15	7.25
Cc1ccc(O)c(NC(=O)c2noc3c2CC(C(C)(C)C)CC3)c1 (centres undefined)	0.483	> 15
C=CCOC(=O)C1=C(C)N=C2CCCC(O)=C2C1c1ccc(OCC)c(OC)c1 (centres undefined)	5.26	> 15
CCCN(CCC)CCCNC(=S)Nc1ccc2nc(N3CCN(C)CC3)cc(C)c2c1	5.25	3.4
O=C(CSc1ccc2nnc(-c3cccc(F)c3)n2n1)Nc1cccc(F)c1	1.08	> 15
CC[n+]1c(C=C2C=CN(C)C=C2)ccc2cc(C)ccc21	0.469	2.8
O=[N+]([O-])c1cccc(-c2cn(-c3ccccc3)c3[n+]2CCCS3)c1	3.91	2.28

Reference: ChEMBL document CHEMBL1154198, “Chemical genetics of Plasmodium falciparum” (Nature, 2010)
